Data from PubChem BioAssay (NCI).
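Test compounds were applied to cells in 96-well plates for 48 hours at 5 doses. Definition used: TGI = concentration required for complete inhibition of growth.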

Experiments:
Experiment in all cases: NCI tumour cell line growth inhibition, 48 h
A549 NSCLC = system: A549 NSCLC
MDA-N = system: MDA-N
SNB-19 CNS = system: SNB-19 CNS
DU-145 prostate = system: DU-145 prostate
NCI-H226 lung = system: NCI-H226 lung
PC-3 prostate = system: PC-3 prostate
HCT-15 colon = system: HCT-15 colon
NCI-H460 lung = system: NCI-H460 lung
HL-60(TB) leukemia = system: HL-60(TB) leukemia
IGROV1 ovarian = system: IGROV1 ovarian
HT29 colon = system: HT29 colon
T-47D breast = system: T-47D breast
NCI/ADR-RES ovarian = system: NCI/ADR-RES ovarian
SF-295 CNS = system: SF-295 CNS
SK-MEL-2 melanoma = system: SK-MEL-2 melanoma
RXF 393 renal = system: RXF 393 renal
LOX IMVI melanoma = system: LOX IMVI melanoma
CAKI-1 renal = system: CAKI-1 renal

Compound	TGI (A549 NSCLC) [µM]	TGI (MDA-N) [µM]	TGI (SNB-19 CNS) [µM]	TGI (DU-145 prostate) [µM]	TGI (NCI-H226 lung) [µM]	TGI (PC-3 prostate) [µM]	TGI (HCT-15 colon) [µM]	TGI (NCI-H460 lung) [µM]	TGI (HL-60(TB) leukemia) [µM]	TGI (IGROV1 ovarian) [µM]	TGI (HT29 colon) [µM]	TGI (T-47D breast) [µM]	TGI (NCI/ADR-RES ovarian) [µM]	TGI (SF-295 CNS) [µM]	TGI (SK-MEL-2 melanoma) [µM]	TGI (RXF 393 renal) [µM]	TGI (LOX IMVI melanoma) [µM]	TGI (CAKI-1 renal) [µM]
CCCCC(O)(c1ccccc1)C(O)(c1ccccc1)c1c(F)c(F)c(F)c(F)c1F (configuration not stated)	> 100	39.3	> 100	> 100	86	46.8	30.1	54.4	61.9	> 100	32.3	> 100	49.1					
Cc1cc(O)c2c(c1)C(C1OC(CO)C(O)C(O)C1O)c1cc(O)cc(O)c1C2=O (configuration not stated)	> 100	> 100	> 100	> 100	> 100	> 100	> 100	> 100	> 100	> 100	> 100	> 100	> 100	> 100				
COc1ccc(C[n+]2cccc(O)c2)cc1	> 100	> 100	> 100	> 100	> 100	> 100		> 100	> 100	> 100	> 100	> 100	> 100	> 100	> 100	> 100		
O=C(O)CCNc1ncc2c(n1)-c1ccccc1OC2	> 100	> 100	> 100	> 100	> 100	> 100	> 100	> 100	> 100	> 100	> 100		> 100	> 100	> 100	> 100	> 100	> 100
C=C1C2C[C@@H]3O[C@H]4C[C@H]5O[C@@]6(C[C@@H]7O[C@]8(C[C@H](C)[C@@H]9O[C@@H]%10CC(C=O)O[C@@H]%10C[C@@H]9O8)C[C@H](C)[C@@H]7O6)C[C@H]5O[C@H]4[C@H](C)[C@H]3OC(=O)C[C@H]3CC[C@@H]4OC5[C@H]6O[C@]7(CC[C@H]8CC(=C)[C@H](CC[C@@H](C[C@H]1C)O2)O8)CC6O[C@@H]5[C@@H](O7)[C@H]4O3 (some centres not stated)	> 1	< 0.0001	> 1	> 1	0.0119	> 1	0.00609	> 1		> 1		> 1		> 1				> 1
CCOc1ccc(N2C(=O)NC3(c4ccccc4)N(C)C(=O)N(C)C23c2ccccc2)cc1 (configuration not stated)	> 100	> 100	> 100	> 100	> 100	> 100			> 100	> 100	> 100		> 100	> 100	> 100	> 100	> 100	> 100
Cc1n[nH]c(=O)n1Nc1ccccc1	> 100	> 100	> 100	> 100	> 100	> 100	> 100	> 100	> 100	> 100	> 100	> 100	> 100	> 100			> 100	> 100
